Experimental data reported in PubChem BioAssay AID1963863 (Molecular Pharmacology Branch, DTP, NCI, 2024).

Tested on: 931267-113-T-J1-PDC KRAS spheroid with HUVEC/MSC, viability
Assay: Anticancer human tumor 931267-113-T-J1-PDC patient-derived colon adenocarcinoma cell line growth inhibition [KRAS2]
Settings: for IC50: curve of first compound; for viability, T/C: stronger effect = lower value
How it was run: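 KRAS-mutant tumor cells were grown as spheroids with HUVEC endothelial cells and human MSCs as stroma. Targeted agents were tested alone and with KRAS pathway inhibitors. Doses started at or near clinical Cmax, or 10 microM, descending half-log.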

[1] = second compound 0.1 µM, first compound 0.0316 µM
[2] = second compound 0.1 µM, first compound 0.1 µM
[3] = second compound 0.316 µM, first compound 0.0316 µM
[4] = second compound 0.316 µM, first compound 0.1 µM
[5] = second compound 1 µM, first compound 0.0316 µM
[6] = second compound 1 µM, first compound 0.1 µM
[7] = second compound 3.16 µM, first compound 0.0316 µM
[8] = second compound 3.16 µM, first compound 0.1 µM
[9] = second compound 10 µM, first compound 0.0316 µM
[10] = second compound 10 µM, first compound 0.1 µM
[11] = second compound 0.1 µM, first compound 0.316 µM
[12] = second compound 0.1 µM, first compound 1 µM
[13] = second compound 0.1 µM, first compound 3.16 µM
[14] = second compound 0.1 µM, first compound 10 µM
[15] = second compound 0.316 µM, first compound 0.316 µM
[16] = second compound 0.316 µM, first compound 1 µM
[17] = second compound 0.316 µM, first compound 3.16 µM
[18] = second compound 0.316 µM, first compound 10 µM
[19] = second compound 1 µM, first compound 0.316 µM
[20] = second compound 1 µM, first compound 1 µM
[21] = second compound 1 µM, first compound 3.16 µM
[22] = second compound 1 µM, first compound 10 µM
[23] = second compound 3.16 µM, first compound 0.316 µM
[24] = second compound 3.16 µM, first compound 1 µM
[25] = second compound 3.16 µM, first compound 3.16 µM
[26] = second compound 3.16 µM, first compound 10 µM
[27] = second compound 10 µM, first compound 0.316 µM
[28] = second compound 10 µM, first compound 1 µM
[29] = second compound 10 µM, first compound 3.16 µM
[30] = second compound 10 µM, first compound 10 µM
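Note: compound exposure lasted 7 days before the readout.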
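Throughout, for viability, T/C: 100% = DMSO vehicle control viability.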

CC(C)n1nc(-c2ccc3oc(N)nc3c2)c2c(N)ncnc21 + CC1OCC2(CCN(c3cnc(Sc4ccnc(N)c4Cl)c(N)n3)CC2)C1N
IC50 (second compound 0.1 µM): 4.38 nM
IC50 (second compound 0.316 µM): 3.13 nM
IC50 (second compound 1 µM): 3.53 nM
IC50 (second compound 3.16 µM): 3.6 nM
IC50 (second compound 10 µM): 7.13 nM
viability, T/C (second compound 0.1 µM, first compound 0.000316 µM): 90%
viability, T/C (second compound 0.1 µM, first compound 0.001 µM): 81.6%
viability, T/C (second compound 0.1 µM, first compound 0.00316 µM): 49.5%
viability, T/C (second compound 0.1 µM, first compound 0.01 µM): 42.8%
viability, T/C [1]: 27.6%
viability, T/C [2]: 26.1%
viability, T/C (second compound 0.316 µM, first compound 0.000316 µM): 85.2%
viability, T/C (second compound 0.316 µM, first compound 0.001 µM): 76.3%
viability, T/C (second compound 0.316 µM, first compound 0.00316 µM): 44.7%
viability, T/C (second compound 0.316 µM, first compound 0.01 µM): 34.9%
viability, T/C [3]: 19.9%
viability, T/C [4]: 16.7%
viability, T/C (second compound 1 µM, first compound 0.000316 µM): 79.7%
viability, T/C (second compound 1 µM, first compound 0.001 µM): 66.9%
viability, T/C (second compound 1 µM, first compound 0.00316 µM): 51.3%
viability, T/C (second compound 1 µM, first compound 0.01 µM): 36.8%
viability, T/C [5]: 25.7%
viability, T/C [6]: 18.7%
viability, T/C (second compound 3.16 µM, first compound 0.000316 µM): 68.4%
viability, T/C (second compound 3.16 µM, first compound 0.001 µM): 64.1%
viability, T/C (second compound 3.16 µM, first compound 0.00316 µM): 46.1%
viability, T/C (second compound 3.16 µM, first compound 0.01 µM): 43.9%
viability, T/C [7]: 27%
viability, T/C [8]: 15.6%
viability, T/C (second compound 10 µM, first compound 0.000316 µM): 66.5%
viability, T/C (second compound 10 µM, first compound 0.001 µM): 77.7%
viability, T/C (second compound 10 µM, first compound 0.00316 µM): 62.2%
viability, T/C (second compound 10 µM, first compound 0.01 µM): 45.3%
viability, T/C [9]: 19.9%
viability, T/C [10]: 22.5%

CCNC(=O)CC1N=C(c2ccc(Cl)cc2)c2cc(OC)ccc2-n2c(C)nnc21 (stereo unspecified) + COc1cc2nc(C)nc(NC(C)c3cc(N)cc(C(F)(F)F)c3)c2cc1OC1CCOC1
IC50 (second compound 0.1 µM): 1760 nM
IC50 (second compound 0.316 µM): 711 nM
IC50 (second compound 1 µM): 634 nM
IC50 (second compound 3.16 µM): 506 nM
IC50 (second compound 10 µM): < 31.6 nM
viability, T/C [1]: 81.1%
viability, T/C [2]: 73.4%
viability, T/C [11]: 58.7%
viability, T/C [12]: 63.5%
viability, T/C [13]: 41.7%
viability, T/C [14]: 31.9%
viability, T/C [3]: 78.1%
viability, T/C [4]: 62.4%
viability, T/C [15]: 75.9%
viability, T/C [16]: 40.7%
viability, T/C [17]: 31.4%
viability, T/C [18]: 26.6%
viability, T/C [5]: 66.1%
viability, T/C [6]: 76.3%
viability, T/C [19]: 59.1%
viability, T/C [20]: 42.1%
viability, T/C [21]: 30.8%
viability, T/C [22]: 22.4%
viability, T/C [7]: 59.5%
viability, T/C [8]: 64.7%
viability, T/C [23]: 62.4%
viability, T/C [24]: 32.5%
viability, T/C [25]: 23.2%
viability, T/C [26]: 22%
viability, T/C [9]: 2.75%
viability, T/C [10]: 3.6%
viability, T/C [27]: 1.18%
viability, T/C [28]: 0.76%
viability, T/C [29]: 0.92%
viability, T/C [30]: 0.42%

CCNC(=O)CC1N=C(c2ccc(Cl)cc2)c2cc(OC)ccc2-n2c(C)nnc21 (stereo unspecified)
viability, T/C (compound 0.0316 µM): 92.4% [middle of 5 runs]
viability, T/C (compound 0.1 µM): 83% [middle of 5 runs]
viability, T/C (compound 0.316 µM): 72.3% [middle of 5 runs]
viability, T/C (compound 1 µM): 60.5% [middle of 5 runs]
viability, T/C (compound 3.16 µM): 47.1% [middle of 5 runs]
viability, T/C (compound 10 µM): 40.2% [middle of 5 runs]

CC(C)NCC(C(=O)N1CCN(c2ncnc3c2C(C)CC3O)CC1)c1ccc(Cl)cc1 (stereo unspecified) + CC1OCC2(CCN(c3cnc(Sc4ccnc(N)c4Cl)c(N)n3)CC2)C1N
IC50 (second compound 0.1 µM): 3560 nM
IC50 (second compound 0.316 µM): 3720 nM
IC50 (second compound 1 µM): 5160 nM
IC50 (second compound 3.16 µM): 1850 nM
IC50 (second compound 10 µM): 2270 nM
viability, T/C [1]: 78.8%
viability, T/C [2]: 71.7%
viability, T/C [11]: 87%
viability, T/C [12]: 64.4%
viability, T/C [13]: 53.3%
viability, T/C [14]: 37.3%
viability, T/C [3]: 86.4%
viability, T/C [4]: 73.5%
viability, T/C [15]: 81.7%
viability, T/C [16]: 75.2%
viability, T/C [17]: 53%
viability, T/C [18]: 32.2%
viability, T/C [5]: 95%
viability, T/C [6]: 56.9%
viability, T/C [19]: 75.5%
viability, T/C [20]: 59.4%
viability, T/C [21]: 63.7%
viability, T/C [22]: 39%
viability, T/C [7]: 78.2%
viability, T/C [8]: 77.3%
viability, T/C [23]: 74.4%
viability, T/C [24]: 56.3%
viability, T/C [25]: 44.6%
viability, T/C [26]: 35%
viability, T/C [9]: 73.8%
viability, T/C [10]: 67.9%
viability, T/C [27]: 76.7%
viability, T/C [28]: 52.8%
viability, T/C [29]: 48.8%
viability, T/C [30]: 22.5%
